This passage reports IC50 and inhibition results from patent US9050334B2, “MIF inhibitors and their uses” (INNOV88 LLC, priority 2010, dated 2015).

Molecules are shown by their SMILES.

One experiment concerns the target T1, Native human MIF (Homo sapiens, UniProt P14174).
T1 sequence (P14174 2-115 limits assumed): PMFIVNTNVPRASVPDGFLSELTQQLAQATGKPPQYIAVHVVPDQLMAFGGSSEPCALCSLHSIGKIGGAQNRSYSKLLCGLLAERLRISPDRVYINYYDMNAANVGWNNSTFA
Briefly: MIF tautomerase activity assay with hydroxyphenyl pyruvic acid (HPP) substrate. It is filed as biochemical. Particulars: absorbance at 300 nm. The method, then: The ability of candidate compounds to inhibit this tautomerase activity are quantitated by using hydroxyphenyl pyruvic acid (HPP) as a substrate (Ouertatani-Sakouhi et al., 2010). The ability of compounds to inhibit the tautomerase activity can be quantitated by following the increase in absorbance due to the enzymatic formation of the HPP enol-borate complex at 300 nm in the absence and presence of a test compound. The IC50 value of compounds are determined by plotting the initial velocities determined at 300 nm as a function of a test compound's concentration. Assays are carried out in a 96 or 384 well plate format. Representative MIF inhibitors were tested in the assay described above and the results tabulated in Table 1 wherein “A” represents≦10 μM; “B” represents>10 μM and <100 μM; “C” represents>100 μM and ≦200 μM; and “D” represents>200 μM.

The subject of a further experiment is LPS-stimulated PBMCs. Description: TNF-α production in LPS-stimulated PBMCs. Particulars: PBMC; human PBMCs, 25 μM compound preincubated 1 hour, LPS stimulation, 24 hours. It is filed as cell-based. The protocol: (§1) Effect of Candidate Compounds on Cytokine Production from Human Cells: Mono-Mac-6 Cells: The cellular efficacy of the inhibitors is determined using the human monocytic cell line, Mono-Mac-6 cells (MM6 cells) as it has been shown that MIF induces the production of inflammatory mediators, including tumor necrosis factor-α (TNF-α) interleukin (IL)-1β, IL-6, IL-8, interferon-γ (IFN-γ) and prostaglandin E2 (PGE2) in these cells (Schwartz et al., 2009). Recombinant human MIF (rhMIF) will be purchased from R&D Systems (Minneapolis, Minn.) or generated in house. To induce the production of inflammatory mediators, MM6 cells will be plated at a final concentration of 5×10^5 cells/ml in RPMI 1640 medium containing 1% heat-inactivated low-pyrogen fetal bovine serum, 2 mM GlutaMAX-1,1% non-essential amino acids, 1% sodium pyruvate, 100 units/ml penicillin G and 100 μg/ml streptomycin (Gibco BRL Life Technologies). Cells will be stimulated with 100 ng/ml rhMIF with or without inhibitor for 20 h at 37° C. with 5% CO2. The supernatants were stored at −20° C. until they were assayed. The levels of inflammatory mediators will be determined using commercial ELISA kits from R&D Systems (Minneapolis, Minn.). Human Periperal Blood Mononuclear Cells (PBMC): Human whole blood is collected from healthy donors in sodium-heparinized tubes (BD Biosciences), and peripheral blood mononucleated cells (PBMC) are isolated by Ficoll separation. Cells are washed in Dulbecco's phosphate-buffered saline, resuspended in media (DMEM) containing 5% low endotoxin (<0.3 EU/ml) fetal Bovine Serum (FBS, GIBCO) and 10 units/ml penicillin/streptomycin, and plated at 5×10^5 cells/well in 96-well tissue culture plates. Lipopolysaccharide (LPS, E. coli Serotype 0111:B4, Sigma) or macrophage migration inhibitory factor are pre-incubated for 15 minutes with compounds dissolved in dimethyl sulfoxide (DMSO). The mixtures are then added to cells to yield final concentrations of 1% DMSO, 100 ng/ml LPS and 1 μg/ml MIF. Cells are incubated for overnight at 37° C., 5% CO2. TNF-α production is measured by ELISA (R&D Systems). Cytotoxicity is assessed using the MTT [3-(4,5-dimethylthiazol-2-yl)-2,5-diphenyl tetrazolium bromide assay. Human Rheumatoid Arthritis Synovial Fibroblast (RASF) Cell Line: RASF cells are derived from the inflamed synovium of a RA patient who was undergoing total knee replacement. Cells are cultured in Dulbecco's modified Eagle's medium with 15% FBS, 1% glutamine, and 1% penicillin/streptamycin (all from Gibco (Invitrogen), Gaithersburg, Md.). Experiments are performed with cells between passages 7 to 10, using trypsin with 0.25% ethylene diamine tetraacetic acid (EDTA)(Gibco) to detach cells. Interleukin 1 or macrophage migration inhibitory factor (MIF, GIBCO) are pre-incubated for 15 minutes with compounds dissolved in dimethyl sulfoxide (DMSO). The mixtures are then added to cells to yield final concentrations of 1% DMSO, 1 ng/ml Interleukin 1 or 1 μg/ml MIF. RASFs are incubated with or without stimuli at 37° C. for 20 h for induction of Interelukin 6. Interleukin 6 levels in culture supernatants are quantitated by ELISA. Representative MIF inhibitors were tested in the assay described above, specifically, human peripheral blood mononuclear cells [PBMCs] were isolated and stimulated with either LPS or rhMIF.

In experiment [1] the test system is rhMIF-stimulated PBMCs. Briefly: TNF-α production in rhMIF-stimulated PBMCs. The class given is cell-based. The following applies: PBMC; human PBMCs, 25 μM compound preincubated 1 hour, rhMIF stimulation, 24 hours. The protocol:
as §1, with “Interleukin 1 or macrophage migration inhibitory factor (MIF, GIBCO) are pre-incubated for 15 minutes with compounds dissolved in dimethyl sulfoxide (DMSO). The mixtures are then added to cells to yield final concentrations of 1% DMSO, 1 ng/ml Interleukin 1 or 1 μg/ml MIF. RASFs are incubated with or without stimuli at 37° C. for 20 h for induction of Interelukin 6.” left out, “Representative MIF inhibitors were tested in the assay described above, specifically, human peripheral blood mononuclear cells [PBMCs] were isolated and stimulated with either LPS or rhMIF.” left out

The subject of experiment [2] is rhMIF-stimulated PBMCs. Description: IL-6 production in rhMIF-stimulated PBMCs. The class given is cell-based. The following applies: PBMC; human PBMCs, 25 μM compound preincubated 1 hour, rhMIF stimulation, 24 hours. The method, then:
Effect of Candidate Compounds on Cytokine Production from Human Cells: Mono-Mac-6 Cells: The cellular efficacy of the inhibitors is determined using the human monocytic cell line, Mono-Mac-6 cells (MM6 cells) as it has been shown that MIF induces the production of inflammatory mediators, including tumor necrosis factor-α (TNF-α) interleukin (IL)-1β, IL-6, IL-8, interferon-γ (IFN-γ) and prostaglandin E2 (PGE2) in these cells (Schwartz et al., 2009). Recombinant human MIF (rhMIF) will be purchased from R&D Systems (Minneapolis, Minn.) or generated in house. To induce the production of inflammatory mediators, MM6 cells will be plated at a final concentration of 5×10^5 cells/ml in RPMI 1640 medium containing 1% heat-inactivated low-pyrogen fetal bovine serum, 2 mM GlutaMAX-1,1% non-essential amino acids, 1% sodium pyruvate, 100 units/ml penicillin G and 100 μg/ml streptomycin (Gibco BRL Life Technologies). Cells will be stimulated with 100 ng/ml rhMIF with or without inhibitor for 20 h at 37° C. with 5% CO2. The supernatants were stored at −20° C. until they were assayed. The levels of inflammatory mediators will be determined using commercial ELISA kits from R&D Systems (Minneapolis, Minn.). […] Cytotoxicity is assessed using the MTT [3-(4,5-dimethylthiazol-2-yl)-2,5-diphenyl tetrazolium bromide assay. […] Interleukin 6 levels in culture supernatants are quantitated by ELISA. […]

In general, IC50 refers to the concentration at which inhibition is half-maximal. A lower IC50 goes with higher potency. Turning to `Cn1c(=O)c(C#N)c(NC2CCN(S(C)(=O)=O)CC2)c2ccccc21` [Compound XXV], the IC50 on Native human MIF is > 200 µM.

One may read the inhibition as the percentage by which the read-out fell short of the control. Low readings indicate little suppression, high ones strong suppression. Turning to `Cn1c(=O)c(C#N)c(N2CCC(C(=O)c3cccs3)CC2)c2ccccc21` [Compound IV, 1-methyl-2-oxo-4-[4-(thiophen-2-ylcarbonyl)piperidin-1-yl]-1,2-dihydroquinoline-3-carbonitrile], on Native human MIF, the IC50 lay within 100 to 200 µM. Also, the inhibition at 25 µM in the experiment with LPS-stimulated PBMCs lay within 10 to 50%. With `N#Cc1c(NC2CN(S(=O)(=O)c3cccs3)C2)c2ccccc2n(Cc2ccc(F)cc2)c1=O` [XXXIV, 1-(4-fluorobenzyl)-2-oxo-4-(1-(thiophen-2-ylsulfonyl)azetidin-3-ylamino)-1,2-dihydroquinoline-3-carbonitrile], the concentration for half-maximal inhibition (IC50) against Native human MIF is > 200 µM. The same measure, in the same setting: the same measure for `Cn1c(=O)c(C#N)c(NC2CN(S(C)(=O)=O)C2)c2ccccc21` [Compound XXVI, 1-methyl-4-(1-(methylsulfonyl)azetidin-3-ylamino)-2-oxo-1,2-dihydroquinoline-3-carbonitrile]: 10 to 100 µM. Take `Cn1c(=O)c(C#N)c(NC2CCN(C(=O)c3cccs3)CC2)c2ccccc21` [XVII-1, 1-methyl-2-oxo-4-{[1-(thiophen-2-ylcarbonyl)piperidin-4-yl]amino}-1,2-dihydroquinoline-3-carbonitrile]: the IC50 against Native human MIF is ≤ 10 µM. The same compound had an inhibition at 25 µM with LPS-stimulated PBMCs of 50 to 70%.

Compound `N#Cc1c(N2CCC(C(=O)c3cccs3)CC2)c2ccccc2n(Cc2ccc(F)cc2)c1=O` [Compound XXVIII, 1-(4-fluorobenzyl)-2-oxo-4-[4-(thiophen-2-ylcarbonyl)piperidin-1-yl]-1,2-dihydroquinoline-3-carbonitrile] registered a 50% inhibitory concentration (IC50) against Native human MIF of 100 to 200 µM. In addition, the inhibition at 25 µM with LPS-stimulated PBMCs is 10 to 50%. `Cn1c(=O)c(C#N)c(NC2CN(C(=O)c3cccs3)C2)c2ccccc21` [XXIV, 1-methyl-2-oxo-4-(1-(thiophene-2-carbonyl)azetidin-3-ylamino)-1,2-dihydroquinoline-3-carbonitrile]: the half-maximal inhibitory concentration (IC50) against Native human MIF is ≤ 10 µM. Besides, the inhibition at 25 µM with LPS-stimulated PBMCs is 50 to 70%; in the experiment with rhMIF-stimulated PBMCs [1], > 70%; with rhMIF-stimulated PBMCs [2] it was 10 to 50%. Take `Cn1c(=O)c(C#N)c(N2CCC(C(=O)Nc3nccs3)CC2)c2ccccc21` [XIV]: at Native human MIF, the half-inhibitory concentration (IC50) is ≤ 10 µM.

In the case of `Cn1c(=O)c(C#N)c(N2CCC(C(=O)Nc3ccn[nH]3)CC2)c2ccccc21` [Compound XV], the IC50 at Native human MIF is ≤ 10 µM.

`N#Cc1c(NC2CN(C(=O)c3cncnc3)C2)c2ccccc2n(Cc2ccc(F)cc2)c1=O` [XXXVII]: the half-maximal inhibitory concentration (IC50) at Native human MIF lay within 10 to 100 µM. `N#Cc1c(NC2CN(C(=O)c3ccncc3)C2)c2ccccc2n(Cc2ccc(F)cc2)c1=O` [XXXV]: on Native human MIF, the IC50 was ≤ 10 µM. Besides, the inhibition at 25 µM in the experiment with rhMIF-stimulated PBMCs [1] fell in the range of 10 to 50%. Regarding `Cn1c(=O)c(C#N)c(N2CC(C(=O)c3cccs3)C2)c2ccccc21` [Compound V], the IC50 against Native human MIF lay in the range of 10 to 100 µM. Further, the inhibition at 25 µM in the experiment with LPS-stimulated PBMCs is > 70%.

Regarding `N#Cc1c(NC2CN(C(=O)c3cccs3)C2)c2ccccc2n(Cc2ccc(F)cc2)c1=O` [XXXVI], the IC50 on Native human MIF is ≤ 10 µM. Further, the inhibition at 25 µM with rhMIF-stimulated PBMCs [1] was > 70%. For `N#Cc1c(N2CC(C(=O)c3cccs3)C2)c2ccccc2n(Cc2ccc(F)cc2)c1=O` [XXXVIII], the IC50 against Native human MIF lay within 100 to 200 µM.

As for `Cn1c(=O)c(C#N)c(N2CCC(NC(=O)c3cccs3)CC2)c2ccccc21` [Compound VIII, N-[1-(3-cyano-1-methyl-2-oxo-1,2-dihydroquinolin-4-yl)piperidin-4-yl]thiophene-2-carboxamide], the IC50 against Native human MIF is ≤ 10 µM. The compound further came in with an inhibition at 25 µM with LPS-stimulated PBMCs of 10 to 50%. Consider `N#Cc1c(NC2CCN(C(=O)c3cccs3)CC2)c2ccccc2n(Cc2ccc(F)cc2)c1=O` [XXXIII], for which, at Native human MIF, the IC50 is ≤ 10 µM. Besides, in the experiment with LPS-stimulated PBMCs, the inhibition at 25 µM fell in the range of 50 to 70%.

As for `Cn1c(=O)c(C#N)c(N2CCC(C(=O)NCc3ccncc3)CC2)c2ccccc21` [Compound XI, 1-(3-cyano-1-methyl-2-oxo-1,2-dihydroquinolin-4-yl)N-(pyridin-4-ylmethyl)piperidine-4-carboxamide], the 50% inhibitory concentration (IC50) against Native human MIF was > 200 µM. In the case of `Cn1c(=O)c(C#N)c(N2CCC(C(=O)O)CC2)c2ccccc21` [Compound X, 1-(3-cyano-1-methyl-2-oxo-1,2-dihydroquinolin-4-yl)piperidine-4-carboxylic acid], the IC50 against Native human MIF was > 200 µM. Turning to `Cn1c(=O)c(C#N)c(N2CCC(C(=O)NCCO)CC2)c2ccccc21` [XIII], the IC50 against Native human MIF is > 200 µM.

`CN(C)C(=O)C1CCN(c2c(C#N)c(=O)n(C)c3ccccc23)CC1` [XII]: the IC50 on Native human MIF was > 200 µM. `Cn1c(=O)c(C#N)c(N2CC(C(=O)NCc3ccncc3)C2)c2ccccc21` [Compound XIX, 1-(3-cyano-1-methyl-2-oxo-1,2-dihydroquinolin-4-yl)-N-(pyridin-4-ylmethyl)azetidine-3-carboxamide]: at Native human MIF, the half-inhibitory concentration (IC50) is ≤ 10 µM.
